# Laboratory results from patent US10570184B2, “GLP-1/glucagon receptor co-agonists for medical use” (Novo Nordisk A/S, priority 2014, dated 2020).
# Starred links: 1 amine or outer side, 2 acyl side, 3 side chain; linkers in the order of their positions; H or OH if unused. Non-standard residues stand in square brackets, D forms with d. Residues, ends and D or L forms follow the SMILES beside them. Groups on a side chain read outwards from the residue. *: point of attachment. C18 diacid = O=C(O)CCCCCCCCCCCCCCCCC(=O)*; γGlu = O=C(O)[C@H](CCC(=O)[*:2])N[*:1]; Ac4c = NC1(C(=O)O)CCC1; AEEA = NCCOCCOCC(=O)O; Aib = CC(C)(N)C(=O)O
# How the values were obtained:
# human GLP-1 receptor [1] = molecular target: T1, human GLP-1 receptor (Homo sapiens, UniProt P43220); assay: Assay (I)(a) GLP-1 receptor activation, CRE luciferase reporter gene assay in BHK cells; type: cell-based; conditions: without presence of serum albumin; read-out: GLP-1R EC50 (pM) [Assay (I)(a)]
# T1 construct: expressed in transfected cells; host or cells: membranes of BHK cells (parent BHKTS13), clone FCW467-12A
# T1 sequence (P43220 24-463): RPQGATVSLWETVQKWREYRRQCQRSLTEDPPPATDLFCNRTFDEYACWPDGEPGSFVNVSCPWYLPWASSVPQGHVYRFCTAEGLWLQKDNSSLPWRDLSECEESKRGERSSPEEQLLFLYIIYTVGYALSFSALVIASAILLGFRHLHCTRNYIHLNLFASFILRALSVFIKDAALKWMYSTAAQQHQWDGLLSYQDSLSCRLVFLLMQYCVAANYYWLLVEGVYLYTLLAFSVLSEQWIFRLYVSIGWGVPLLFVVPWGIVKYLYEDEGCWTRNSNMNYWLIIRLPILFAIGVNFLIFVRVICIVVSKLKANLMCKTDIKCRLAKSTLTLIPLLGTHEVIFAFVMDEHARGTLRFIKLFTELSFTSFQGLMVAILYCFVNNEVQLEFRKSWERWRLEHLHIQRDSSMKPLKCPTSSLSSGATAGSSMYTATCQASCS
# Method: The purpose of this example was to test the activity or potency, of the glucagon derivatives of the invention, in vitro. The in vitro potency is the measure of human GLP-1 receptor (GLP-1R) or glucagon receptor (glucagonR) activation, respectively, in a whole cell assay. In vitro potency was determined by measuring the response of human GLP-1 or glucagon receptor, respectively, in a reporter gene assay. The assay was performed in a stably transfected BHK cell line that expresses either the human GLP-1 receptor or the human glucagon receptor and contains the DNA for the cAMP response element (CRE) coupled to a promoter and the gene for firefly luciferase (CRE luciferase). […] When assay incubation was completed, the luciferase substrate (luciferin) was added and the enzyme converted luciferin to oxyluciferin and produces bioluminescence. The luminescence was measured as the readout for the assay. The cells used in this assay (clone FCW467-12A/KZ10-1) were BHK cells with BHKTS13 as a parent cell line. The cells were derived from a clone (FCW467-12A) that expresses the human GLP-1 receptor and were established by further transfection with CRE luciferase to obtain the current clone. The cells were cultured at 5% CO2 in DMEM medium with 10% FBS, 1×GlutaMAX, 1 mg/ml G418, 240 nM MTX (methotrexate) and 1% pen/strep (penicillin/streptomycin). They were aliquoted and stored in liquid nitrogen. Before each assay, an aliquot was taken up and washed three times in PBS before being suspended at the desired concentration in assay medium. For 96-well plates the suspension was made to give a final concentration of 5×10EE3 cells/well. The following chemicals were used in the assay: Pluronic F-68 (10%) (Gibco 2404), ovalbumin (Sigma A5503), DMEM w/o phenol red (Gibco 11880-028), 1 M Hepes (Gibco 15630), Glutamax 100× (Gibco 35050) and steadylite plus (PerkinElmer 6016757). Assay Medium consisted of DMEM w/o phenol red, 10 mM Hepes, 1× GlutaMAX, 2% Ovalbumin and 0.2% Pluronic F-68. Cell stocks were thawed in a 37° C. water bath. Cells were washed three times in PBS. The cells were counted and adjusted to 5×10EE3 cells/50 μl (1×10EE5 cells/ml) in Assay Medium. A 50 μl aliquot of cells was transferred to each well in the assay plate. Stocks of the test compounds and reference compounds were diluted to a concentration of […] in Assay Medium. Compounds were diluted 10-fold to give the following concentrations: 2×10EE-6 M, 2×10EE-7 M, 2×10EE-8 M; 2×10EE-9 M, 2×10EE-10 M, 2×10EE-11 M, 2×10EE-12 M and 2×10EE-13 M. For each compound a blank assay medium control was also included. A 50 μl aliquot of compound or blank was transferred from the dilution plate to the assay plate. Compounds were tested at the following final concentrations: 1×10EE-6 M, 1×10EE-7 M, 1×10EE-8 M; 1×10EE-9 M, 1×10EE-10 M, 1×10EE-11 M and 1×10EE-12 M and 1×10EE-13 M. The assay plate was incubated for 3 h in a 5% CO2 incubator at 37° C. The assay plate was removed from the incubator and allowed to stand at room temperature for 15 min. A 100 μl aliquot of steadylite plus reagent was added to each well of the assay plate (reagent is light sensitive). Each assay plate was covered with aluminum foil to protect it from light and shaken for 30 min at room temperature. Each assay plate was read in a Perkin Elmer TopCount NXT instrument. The data from the TopCount instrument was transferred to GraphPad Prism software. The software performed a non-linear regression (log(agonist) vs response-Variable slope (four parameter)). EC50 values were calculated by the software and reported in pM.
# human GLP-1 receptor [2] = molecular target: T1, human GLP-1 receptor; assay: Assay (II)(a) GLP-1 receptor binding, 125I-GLP-1 displacement SPA on BHK membranes; conditions: without presence of serum albumin; read-out: GLP-1R IC50 (nM) [Assay (II)(a)]
# Method: The GLP-1 receptor (GLP-1R) binding is a measure of affinity of a compound for the human GLP-1 receptor. The receptor binding of each compound to the human GLP-1 receptor was measured in a displacement binding assay. In this type of assay a labelled ligand (in this case 125I-GLP-1) is bound to the receptor. Each derivative was added in a series of concentrations to isolated membranes containing the human GLP-1 receptor and displacement of the labelled ligand was monitored. The receptor binding was reported as the concentration at which half of the labelled ligand was displaced from the receptor, the IC50 value. In order to test the binding of the derivatives to albumin, the assay may be performed in a very low concentration of serum albumin (max. 0.001% final assay concentration) as well as in the presence of a (considerably) higher concentration of serum albumin (2.0% final assay concentration). An increase of the IC50 value, in the presence of serum albumin indicates an affinity to serum albumin and represents a method to predict a protracted pharmacokinetic profile of the test substance in animal models. The following chemicals were used in the assay: DMEM w/o phenol red (Gibco 11880-028), Pen/strep (Invitrogen 15140-122), G418 (Invitrogen 10131-027), 1 M Hepes (Gibco 15630), EDTA (Invitrogen 15575-038), PBS (Invitrogen 14190-094), fetal calf serum (Invitrogen 16140-071), EGTA, MgCl2 (Merck 1.05832.1000), Tween 20 (Amresco 0850C335), SPA particles (wheat germ agglutinin (WGA) SPA beads, Perkin Elmer RPNQ0001), [125I]-GLP-1]-(7-36)NH2 (produced in-house), OptiPlate™-96 (Perkin Elmer). Buffer 1 consisted of 20 mM Na-HEPES plus 10 mM EDTA and pH was adjusted to 7.4. Buffer 2 consisted of 20 mM Na-HEPES plus 0.1 mM EDTA and pH was adjusted to 7.4. Assay buffer consisted of 50 mM HEPES supplemented with 5 mM EGTA, 5 mM MgCl2, 0.005% Tween 20 and pH was adjusted to 7.4. The cells used in this assay (clone FCW467-12A) were BHK cells with BHKTS13 as a parent cell line. The cells express the human GLP-1 receptor. The cells were grown at 5% CO2 in DMEM, 10% fetal calf serum, 1% Pen/Strep (Penicillin/Streptomycin) and 1.0 mg/ml of the selection marker G418. To make a membrane preparation the cells were grown to approximately 80% confluence. The cells were washed twice in phosphate-buffered saline and harvested. The cells were pelleted using a brief centrifugation and the cell pellet was kept on ice. The cell pellet was homogenised with ULTRA-THURRAX dispersing instrument for 20-30 seconds in a suitable amount of buffer 1 (e.g., 10 ml). The homogenate was centrifuged for 15 minutes. The pellet was re-suspended (homogenised) in 10 ml buffer 2 and centrifuged. This step was repeated once more. The resulting pellet was re-suspended in buffer 2 and the protein concentration was determined. The membranes were aliquoted and stored at minus 80° C. • 1. For the receptor binding assay, 50 μl of the assay buffer was added to each well of an assay plate. • 2. Test compounds were serially diluted to give the following concentrations: 8×10EE-7 M, 8×10EE-8 M, 8×10EE-9 M, 8×10EE-10 M, 8×10EE-11 M, 8×10EE-12 M and 8×10EE-13 M. Twenty-five μl were added to appropriate wells in the assay plate. • 3. Cell membrane aliquots were thawed and diluted to their working concentration. Fifty μl were added to each well in the assay plate. • 4. WGA SPA beads were suspended in assay buffer at 20 mg/ml. The suspension was diluted to 10 mg/ml in assay buffer just prior to addition to the assay plate. Fifty μl were added to each well in the assay plate. • 5. The incubation was started by adding 25 μl of […] solution of [125I]-GLP-1]-(7-36)NH2 to each well of the assay plate. A 25 μl aliquot was reserved for measuring total counts/well. • 6. The assay plate was incubated for 2 h at 30° C. • 7. The assay plate was centrifuged for 10 min. • 8. The assay plate was read in a Perkin Elmer TopCount NXT instrument. […]
EC50 (human GLP-1 receptor [1]),IC50 (human GLP-1 receptor [2]),SMILES
4 pM,0.1 nM,"CC[C@H](C)[C@H](NC(=O)[C@H](CC(C)C)NC(=O)[C@H](Cc1c[nH]c2ccccc12)NC(=O)[C@H](CCC(N)=O)NC(=O)[C@@H](NC(=O)[C@H](Cc1ccccc1)NC(=O)[C@H](CCC(=O)O)NC(=O)[C@H](CCCNC(=N)N)NC(=O)[C@H](C)NC(=O)[C@H](CCCNC(=N)N)NC(=O)[C@H](CCCNC(=N)N)NC(=O)[C@H](CO)NC(=O)[C@H](CCC(=O)O)NC(=O)[C@H](CC(C)C)NC(=O)[C@H](Cc1ccc(O)cc1)NC(=O)[C@H](CCCCN)NC(=O)[C@H](CO)NC(=O)[C@H](CC(C)C)NC(=O)[C@H](CC(=O)O)NC(=O)[C@H](CO)NC(=O)[C@@H](NC(=O)[C@H](Cc1ccccc1)NC(=O)[C@@H](NC(=O)CNC(=O)[C@H](CCC(N)=O)NC(=O)C1(NC(=O)[C@@H](N)Cc2c[nH]cn2)CCC1)[C@@H](C)O)[C@@H](C)O)C(C)C)C(=O)N[C@@H](CCCCNC(=O)CC[C@H](NC(=O)CC[C@H](NC(=O)COCCOCCNC(=O)COCCOCCNC(=O)CC[C@H](NC(=O)CC[C@H](NC(=O)CCCCCCCCCCCCCCCCC(=O)O)C(=O)O)C(=O)O)C(=O)O)C(=O)O)C(=O)N[C@H](C(N)=O)[C@@H](C)O [Chem. 13, N^ε28-[(4S)-4-carboxy-4-[[(4S)-4-carboxy-4-[[2-[2 [2-[[2-[2-[2-[[(4S)-4-carboxy-4-[[(4S)-4-carboxy-4-(17-carboxyheptadecanoylamino)butanoyl]amino]butanoyl]amino]ethoxy]ethoxy]acetyl]amino]ethoxy]ethoxy]acetyl]amino]butanoyl]amino]butanoyl]-[Acb2,Leu10,Glu15,Arg20,Glu21,Ile27,Lys28]-Glucagon amide] (H-H[Ac4c]QGTFTSDLSKYLESRRAREFVQWLIK([γGlu-γGlu-AEEA-AEEA-γGlu-γGlu-C18 diacid])T-NH2)"
3 pM,–,"CC[C@H](C)[C@H](NC(=O)[C@H](CC(C)C)NC(=O)[C@H](Cc1c[nH]c2ccccc12)NC(=O)[C@H](CCC(N)=O)NC(=O)[C@@H](NC(=O)[C@H](Cc1ccccc1)NC(=O)[C@H](CC(=O)O)NC(=O)[C@H](CCC(N)=O)NC(=O)[C@H](C)NC(=O)[C@H](CCCNC(=N)N)NC(=O)[C@H](CCCNC(=N)N)NC(=O)[C@@H](NC(=O)[C@H](CC(=O)O)NC(=O)[C@H](CC(C)C)NC(=O)[C@H](Cc1ccc(O)cc1)NC(=O)[C@H](CCCCN)NC(=O)[C@H](CO)NC(=O)[C@H](CC(C)C)NC(=O)[C@H](CC(=O)O)NC(=O)[C@H](CO)NC(=O)[C@@H](NC(=O)[C@H](Cc1ccccc1)NC(=O)[C@@H](NC(=O)CNC(=O)[C@H](CCC(N)=O)NC(=O)C(C)(C)NC(=O)[C@@H](N)Cc1c[nH]cn1)[C@@H](C)O)[C@@H](C)O)C(C)C)C(C)C)C(=O)N[C@@H](CCCCNC(=O)CC[C@H](NC(=O)COCCOCCNC(=O)COCCOCCNC(=O)CC[C@H](NC(=O)CC[C@H](NC(=O)CCCCCCCCCCCCCCCCC(=O)O)C(=O)O)C(=O)O)C(=O)O)C(=O)N[C@H](C(N)=O)[C@@H](C)O [Chem. 40, N^ε28-[(4S)-4-carboxy-4-[[2-[2-[2-[[2-[2-[2-[[(4S)-4-carboxy-4-[[(4S)-4-carboxy-4-(17-carboxyheptadecanoylamino)butanoyl]amino]butanoyl]amino]ethoxy]ethoxy]acetyl]amino]ethoxy]ethoxy]acetyl]amino]butanoyl]-[Aib2,Leu10,Val16,Ile27,Lys28]-Glucagon amide] (H-H[Aib]QGTFTSDLSKYLDVRRAQDFVQWLIK([γGlu-AEEA-AEEA-γGlu-γGlu-C18 diacid])T-NH2; N-terminus assumed)"
